US20230047825A1, “ANTIMICROBIAL PEPTIDES” (priority 2019, published 2023)
≈ marks a conversion by molar mass, not a printed value. Where two headings read alike, the source gives them in different places. Marks after values point to notes of the source that are not given here. Where a SMILES comes first, the peptide text is derived from it.

Experiments:
Klebsiella pneumoniae M6 = type: cell-based; conditions: for MIC on initial panels: medium and unit not given, in µg/mL; for MIC: untitled table, medium/unit not given, values match RPMI of Table 2, in µg/mL
[1] = system: MS Staphylococcus aureus ATCC 9144; type: cell-based; conditions: MSSA9144; for MIC on initial panels: medium and unit inferred; for MIC: untitled table, medium/unit not given, values match RPMI of Table 2, in µg/mL
human red blood cells = assay: Haemolysis assay; conditions: for Toxicity HC50, Peptide concentration: red cells of human, 1 h
In short: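 Peptide titrations in PBS incubated with fresh human red blood cells for 1 h at 37 C; supernatant OD550 read after removing intact cells. % haemolysis scaled between PBS-only (0%) and 0.1% Triton-X-100 (100%) controls; mean and SE of three biological replicates.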

[2] = system: Escherichia coli NCTC 12923; type: cell-based; conditions: for MIC, Stability in serum (MH) / MIC on initial panels / MIC: EC12923; for MIC on initial panels: medium and unit not given; for MIC on initial panels / MIC: in µg/mL; for MIC: untitled table, medium/unit not given, values match RPMI of Table 2
[3] = system: VS Enterococcus faecalis NCTC 775; assay: Antibacterial activity assay (broth microdilution MIC); type: cell-based; conditions: for MIC, Peptide concentration: Mueller-Hinton broth; for MIC on initial panels: VSE775, medium and unit not given, in µg/mL
VRE12201 = assay: as above; type: cell-based, Enterococcus faecalis; conditions: medium and unit inferred
Source text: Antibacterial activity assay.
The bacterial strains used are as in the above examples. A table of strains is provided below to aid understanding.

[4] = system: Pseudomonas aeruginosa PA01; assay: as above; type: cell-based; conditions: for MIC, Stability in serum (MH) / MIC on initial panels: in µg/mL; for MIC on initial panels: medium and unit not given; for MIC: untitled table, medium/unit inferred, values match RPMI of Table 2
[5] = system: Pseudomonas aeruginosa NCTC 13437; assay: as above; type: cell-based; conditions: PA13437, in µg/mL; for MIC on initial panels: medium and unit not given; for MIC: untitled table, medium/unit not given, values match RPMI of Table 2
[6] = system: Acinetobacter baumannii ATCC 17978; type: cell-based; conditions: in µg/mL; for MIC on initial panels / MIC: AB17978; for MIC on initial panels: medium and unit not given; for MIC: untitled table, medium/unit not given, values match RPMI of Table 2; for MIC, Stability in serum (MH): Ab17978
[7] = system: Acinetobacter baumannii AYE; type: cell-based; conditions: for MIC, Stability in serum (MH) / MIC on initial panels / MIC: AYE; for MIC on initial panels: medium and unit not given; for MIC on initial panels / MIC: in µg/mL; for MIC: untitled table, medium/unit not given, values match RPMI of Table 2
[8] = system: VR Enterococcus faecium NCTC 12204; assay: Antibacterial activity assay (broth microdilution MIC); type: cell-based; conditions: VRE12204, in µg/mL; for MIC on initial panels: medium and unit not given; for MIC: untitled table, medium/unit not given, values match RPMI of Table 2
[9] = system: EMR Staphylococcus aureus-15 (EMRSA-15); type: cell-based; conditions: for MIC on initial panels / MIC: EMRSA15; for MIC on initial panels: medium and unit inferred; for MIC: untitled table, medium/unit inferred, values match RPMI of Table 2
[10] = Electrophysiology (Port-a-Patch patch-clamp) on model membranes
Source text: The depth of insertion into each membrane is shown as the Z-position for each residue, averaged over all four peptides, relative to the phosphate group plane in the upper POPE/POPG (A/E/I) or POPG (C/G/K) bilayer leaflet in six MD simulations. Positive or negative values indicate the peptides are below or above the phosphate group. Representative current traces illustrating membrane activity when DPhPE/DPhPG (B/F/J) or DPhPG (D/H/L) model membranes are challenged with each peptide at the indicated concentration (lowest concentration that induced detectable activity). Data is for pleurocidin (A-D), pleurocidin-KR (E-H) and pleurocidin-VA (I-L). Membrane disordering by each peptide in mixed POPE/POPG bilayers is shown with data obtained from ^2H solid-state NMR (M/N) or from MD simulations where order parameters are calculated for all lipids within 4 Å of a peptide (O/P).
Molecular dynamics simulations. Simulations were carried out on either the ARCHER Cray XC30 supercomputer, or Dell Precision quad core T3400 or T3500 workstations equipped with a 1 kW Power supply (PSU) and two NVIDA PNY GeForce GTX570 or GTX580 graphics cards using Gromacs.^53 The CHARMM36 all-atom force field was used in all simulations^54-56. All simulations were run, as described previously^20 and for a total of 200 nanoseconds and repeated twice, with peptides inserted at different positions and orientations, giving a total of approximately 4.0 μs simulation. Liposome preparation and circular dichroism (CD) spectroscopy. Small unilamellar vesicles (SUV) were produced and far-UV spectra of the peptides obtained as described previously^20 using a Chirascan Plus spectrometer (Applied Photophysics, Leatherhead, UK) with samples maintained at 310 K. For liposome experiments the lipid concentration was 5 mM and a peptide to lipid molar ratio of 1:100 was maintained while the SDS micelles concentration was 20 mM with 200 μM peptide. Electrophysiology experiments (Patch-clamp). Patch clamp experiments were performed using the Port-a-Patch® (Nanion Technologies GmbH, Munich, Germany) with giant unilamellar vesicles (GUVs) composed of DPhPE/DPhPG (60:40, mol:mol) or DPhPG prepared by the electroformation method using the Nanion Vesicle Prep Pro setup (Nanion Technologies GmbH, Munich, Germany) as described previously.^20
Synergy experiments were performed following a checkerboard protocol.

| Compound | MIC, Stability in serum (MH) (Klebsiella pneumoniae M6; No serum) | MIC, Stability in serum (MH) (Klebsiella pneumoniae M6; Serum (10% fetal bovine serum)) | MIC on initial panels (Klebsiella pneumoniae M6) | MIC (Klebsiella pneumoniae M6) | MIC on initial panels [1] | MIC [1] | Toxicity HC50, Peptide concentration (human red blood cells) | MIC, Stability in serum (MH) ([2]; No serum) | MIC, Stability in serum (MH) ([2]; Serum (10% fetal bovine serum)) | MIC on initial panels [2] | MIC [2] | MIC, Peptide concentration [3] | MIC on initial panels [3] | MIC on initial panels (VRE12201) | MIC, Stability in serum (MH) ([4]; No serum) | MIC, Stability in serum (MH) ([4]; Serum (10% fetal bovine serum)) | MIC on initial panels [4] | MIC [4] | MIC, Stability in serum (MH) ([5]; No serum) | MIC, Stability in serum (MH) ([5]; Serum (10% fetal bovine serum)) | further results |
| --- | --- | --- | --- | --- | --- | --- | --- | --- | --- | --- | --- | --- | --- | --- | --- | --- | --- | --- | --- | --- | --- |
| CC(C)C[C@@H](NC(=O)[C@@H](Cc1ccc(O)cc1)NC(=O)[C@@H](Cc1c[nH]cn1)NC(=O)[C@H](NC(=O)[C@@H](CC(C)C)NC(=O)[C@@H](C)NC(=O)[C@@H](C)NC(=O)[C@@H](CCCNC(=N)N)NC(=O)CNC(=O)[C@H](NC(=O)[C@@H](Cc1c[nH]cn1)NC(=O)[C@@H](CCCNC(=N)N)NC(=O)CNC(=O)[C@H](NC(=O)[C@@H](Cc1c[nH]cn1)NC(=O)[C@@H](C)NC(=O)[C@@H](C)NC(=O)[C@@H](CCCNC(=N)N)NC(=O)[C@@H](CCCNC(=N)N)NC(=O)[C@@H](Cc1ccccc1)NC(=O)[C@@H](Cc1ccccc1)NC(=O)[C@@H](CO)NC(=O)CNC(=O)[C@@H](Cc1c[nH]c2ccccc12)NC(=O)CN)C(C)C)C(C)C)[C@H](C)O)C(N)=O [D-pleurocidin-KR] (HELM PEPTIDE1{G.[dW].G.[dS].[dF].[dF].[dR].[dR].[dA].[dA].[dH].[dV].G.[dR].[dH].[dV].G.[dR].[dA].[dA].[dL].[dT].[dH].[dY].[dL].[am]}$$$$V2.0; N-terminus assumed) | 2 µg/mL (≈ 0.709 µM) | 0.5 µg/mL (≈ 0.177 µM) | 2 | 4 | 2 µg/mL (≈ 0.709 µM) | 0.25-0.5 | ~400 µg/mL | 1 µg/mL (≈ 0.354 µM) | 0.25 µg/mL (≈ 0.0886 µM) | 1 | 2 | 8 (NG) μg/ml | 8 | 8 µg/mL (≈ 2.83 µM) | 4 | 4 | 4 | 16 µg/mL (≈ 5.67 µM) | 4 | 8 | therapeutic index over red blood cell haemolysis (human red blood cells): at least 100 fold; MIC on initial panels [5]: 4; MIC [5]: 16; MIC on initial panels [6]: 2; MIC [6]: 4; MIC, Stability in serum (MH) ([6]; No serum): 2; MIC, Stability in serum (MH) ([6]; Serum (10% fetal bovine serum)): 0.5; MIC, Stability in serum (MH) ([7]; No serum): 2 µg/mL (≈ 0.709 µM); MIC, Stability in serum (MH) ([7]; Serum (10% fetal bovine serum)): 0.5 µg/mL (≈ 0.177 µM); MIC on initial panels [7]: 2; MIC [7]: 2; MIC on initial panels [8]: 2; MIC [8]: 2; MIC on initial panels [9]: 2 µg/mL (≈ 0.709 µM); MIC [9]: 0.5 µg/mL (≈ 0.177 µM); MIC, Peptide concentration ([9]; Mueller-Hinton broth): 2 µg/mL (≈ 0.709 µM); MIC, Peptide concentration ([9]; Mueller-Hinton broth, listed as D-PLEUROCIDIN-KR): 4 µg/mL (≈ 1.42 µM) |
| CC(C)C[C@H](NC(=O)[C@H](Cc1ccc(O)cc1)NC(=O)[C@H](Cc1c[nH]cn1)NC(=O)[C@@H](NC(=O)[C@H](CC(C)C)NC(=O)[C@H](C)NC(=O)[C@H](C)NC(=O)[C@H](CCCNC(=N)N)NC(=O)CNC(=O)[C@@H](NC(=O)[C@H](Cc1c[nH]cn1)NC(=O)[C@H](CCCNC(=N)N)NC(=O)CNC(=O)[C@@H](NC(=O)[C@H](Cc1c[nH]cn1)NC(=O)[C@H](C)NC(=O)[C@H](C)NC(=O)[C@H](CCCNC(=N)N)NC(=O)[C@H](CCCNC(=N)N)NC(=O)[C@H](Cc1ccccc1)NC(=O)[C@H](Cc1ccccc1)NC(=O)[C@H](CO)NC(=O)CNC(=O)[C@H](Cc1c[nH]c2ccccc12)NC(=O)CN)C(C)C)C(C)C)[C@@H](C)O)C(N)=O [Pleurocidin-KR] (H-GWGSFFRRAAHVGRHVGRAALTHYL-NH2; N-terminus assumed) | 4 µg/mL (≈ 1.42 µM) | 2 µg/mL (≈ 0.709 µM) | 2 | 32 | 2 µg/mL (≈ 0.709 µM) | 4 | >400 µg/mL | 2 µg/mL (≈ 0.709 µM) | 1 µg/mL (≈ 0.354 µM) | 1 | 16 | 16 (NG) μg/ml | 16 | 32 µg/mL (≈ 11.3 µM) | 4 | >128 | 4 | > 32 µg/mL | 4 | 32* | MIC, Peptide concentration (Klebsiella pneumoniae M6): 2 µg/mL (≈ 0.709 µM); MIC, Peptide concentration ([2]; NCTC 12923): 16 µg/mL (≈ 5.67 µM); Peptide concentration necessary to start membrane activity ([10]; DPhPE/DPhPG): 10 µM; Peptide concentration necessary to start membrane activity ([10]; DPhPG): 7.5 µM; MIC on initial panels [5]: 8; MIC [5]: >32; MIC on initial panels [6]: 1; MIC [6]: 8; MIC, Stability in serum (MH) ([6]; No serum): 2; MIC, Stability in serum (MH) ([6]; Serum (10% fetal bovine serum)): 2; MIC, Stability in serum (MH) ([7]; No serum): 2 µg/mL (≈ 0.709 µM); MIC, Stability in serum (MH) ([7]; Serum (10% fetal bovine serum)): 2 µg/mL (≈ 0.709 µM); MIC on initial panels [7]: 1-2; MIC [7]: 8-16; MIC, Peptide concentration ([7]; RPMI (value in parentheses)): 8 to 16 µg/mL; MIC on initial panels [8]: 4; MIC [8]: 16; MIC, Peptide concentration ([9]; EMR -15 (EMRSA-15)): 4 (4) μg/ml; MIC on initial panels [9]: 4 µg/mL (≈ 1.42 µM); MIC [9]: 4 µg/mL (≈ 1.42 µM) |
